Data reported in patent publication US20120239140A1, “MEDICAL PRODUCT COMPRISING AN ACTIVE COATING” (priority 2011, published 2012).
Entries after “also recorded” stand apart in the source; their conditions may differ.

What was measured:
[1] = test system: pathologically altered human aortas; test: Ex vivo test on the aorta model (stent implanted in the explant, 2 weeks culture, PCR); assay type: cell-based
Excerpt: The ex vivo test on pathologically altered human arteries and, in particular, on human aortas is a novel test model that makes it possible to better predict the clinical efficacy of biologically active coatings of medical implants such as stents or balloon catheters. Until now, it was not possible to perform this prediction in a reliable manner. […] These failures have engendered doubt in the benefit of the standard animal models, since, despite additional serial examinations and comprehensive screenings, the clinical efficacy of a new substance is uncertain even though preclinical results were positive. Until now there was no test model available that investigated the antiproliferative effect of new drugs in the complex biological environment of an arteriosclerotic vessel. On the basis of this novel test model, it is now possible to obtain mechanistic insights into the origin of a restenosis after stent implantation and to develop a therapy specific for the cause thereof
The special test procedure is based on the use of human pathological vascular tissue obtained directly within one hour after operation (vasectomy). Immediately after removal, the vascular preparations are placed in a sterile phosphate buffer (PBS) at room temperature, and are transported. […]

[2] = cited from earlier work
[3] = cited from earlier work; remark: listed apart in the source

Row | Compound | proliferation of smooth muscle cells (proliferation markers KI-67 and PCNA) ([1]; Pyr3 eluted from polymeric stent coating (embodiment 1) compared with uncoated 316L stent, after stent implantation with overexpansion, FIGS. 2 and 3) | total number of smooth muscle cells (expression of hSMTN and hAlpha-actin) ([1]; stent with Pyr3 (embodiment 1) compared with uncoated 316L stent, after stent implantation, FIG. 2) | antirestenotic effect / reduction of restenosis in clinical practice [2] | efficacy in the experimental animal model [3]
1 | CCOC(=O)c1cnn(-c2ccc(NC(=O)C(Cl)=C(Cl)Cl)cc2)c1C(F)(F)F [Pyr3, ethyl-1-(4-(2,3,3-trichloroacrylamide)phenyl)-5-(trifluoromethyl)-1H-pyrazole-4-carboxylate] | can be inhibited; also recorded: lower overall proliferation | does not lead to the otherwise common drop in total number of smooth muscle cells | – | –
2 | CC(=O)Oc1ccccc1C(=O)O [aspirin] | – | – | did not reduce restenosis | good efficacy
3 | CC[C@@H]1/C=C(\C)C[C@H](C)C[C@H](OC)[C@H]2O[C@@](O)(C(=O)C(=O)N3CCCC[C@H]3C(=O)O[C@H](/C(C)=C/[C@@H]3CC[C@H](Cl)[C@H](OC)C3)[C@H](C)[C@@H](O)CC1=O)[C@H](C)C[C@@H]2OC [pimecrolimus] | – | – | did not reduce restenosis | good efficacy
4 | heparin | – | – | did not reduce restenosis | good efficacy
